Assay results reported in patent US20230346893A1, “Methods and Compositions for Preventing or Minimizing Epithelial-Mesenchymal Transition” (Innovon Pharmaceuticals Inc., priority 2016, published 2023).

How the values were obtained:
HK-2 cells [1] = assay: TGF-β-induced collagen 1 mRNA expression (EMT marker) in HK-2 cells, quantitative real-time PCR; format: cell-based, human
PC-3 cells = assay: Scratch assay, migration/invasion of mitomycin-treated EGF-induced PC-3 cells; format: cell-based, human; details: EGF 50 ng/mL + Mitomycin C 10 μg/mL, 24 h; for EGF-induced PC-3 migration or invasion (FIG. 7, in words): with and without albumin
Text: The present experiment exemplifies EMT analysis of cancer cells through invasion/migration of PC-3 cell in a “scratch assay”. This assay is based on the observation that, upon creation of a new artificial gap, so called ‘scratch’, on a confluent cell monolayer, the cells on the edge of the newly created gap will move toward the opening to close the scratch. EGF ([…]) was used to induce the migratory/invasion of PC-3 cells into the scratch. Briefly, culture-inserts are placed in a 24-well cell culture plate. PC-3 cells are seeded in culture-inserts and are incubated overnight at 37° C. in a CO2 incubator. Cells are then starved with serum-free medium for another 24 hours. The insert is removed, leaving a visible 500 μm cell-free gap. Cells were treated for 24 h with EGF at 50 ng/mL and Mitomycin C at 10 μg/mL (Mito+EGF) and with a pro-EMT agent, sodium octanoate (Mito+EGF+sodium octanoate) or an anti-EMT agent, sodium decanoate (Mito+EGF+sodium decanoate), with HSA (second row in FIG. 7) and without HSA (first row in FIG. 7). Pictures are taken at 1 h post-treatment as a confluence control for each group. After 24 h, cells are fixed with Crystal Violet staining and air dried before 24 h post treatment pictures are taken.

[2] = test system: human hepatocellular carcinoma cell line HepG2; assay: Collagen 1a1 mRNA expression (EMT marker) in TGF-β induced HepG2; format: cell-based; details: 500 μM; both in presence of albumin (With HSA) or absence of albumin (No HSA); n=3
Experimental: (§1) Real-Time PCR was using human TaqMan Gene Expression Assay normalized to human GAPDH endogenous control. Reference is TGF-β1 control (RQ=1). The *, ** and **** mean a p value of 0.05, 0.01 and 0.0001 respectively, compared to reference. Tested concentration of sodium octanoate and sodium decanoate is 500 μM. The number of experiments is 3 (n=3).

[3] = test system: human microvascular endothelial cells (HMEC); assay: Collagen 1a1 mRNA expression (EndoMT/EMT marker) in TGF-β induced HMEC; format: cell-based; details: 500 μM; both in presence of albumin (With HSA) or absence of albumin (No HSA); n=3
Experimental: Endothelial to mesenchymal transition (EndoMT), which is included in the definition of the expression EMT as used in the present description, can be induced by transforming growth factor (TGF-β). […] Real-Time PCR was using human TaqMan Gene Expression Assay normalized to human GAPDH endogenous control. Reference is TGF-β1 control (RQ=1). The ** and *** mean a p value of 0.01 and 0.001 respectively, compared to reference. Tested concentration of sodium octanoate and sodium decanoate is 500 μM. The number of experiments is 3 (n=3).

[4] = test system: human lung epithelial cell A549; assay: Collagen 1a1 mRNA expression (EMT marker) in TGF-β induced A549; format: cell-based; details: 500 μM; both in presence of albumin (With HSA) or absence of albumin (No HSA); n=3
Experimental: as §1, with “***” for “*, **”, “0.001” for “0.05, 0.01”

HK-2 cells [5] = assay: TGF-β-induced collagen 1 mRNA expression (EMT marker) in HK-2 cells, quantitative real-time PCR; format: cell-based, human; details: for Effect on expression of collagen in TGF-β-induced HK-2 cells (in words): alone or formulated with albumin, concentrations of Table 1; for Changes in collagen mRNA expression (relative to TGF-β-treated cells): fatty acid concentration 5.0 × 10^−4M, TGF-β 10 ng/ml
Experimental: HSA was dissolved in PBS to obtain a concentration of 6.6% (6.6 g/100 ml), and was filtered using a 0.2 μm filter. 75 μl of sodium octanoate or sodium decanoate 10 mM was mixed with 75 μl of HSA 6.6% (without vortex), and incubated 10 min at room temperature. 100 μL of this mixture was used in the assay of Example 4 in a final volume of 1 ml (dilution 1:10).
Analysis was undertaken to determine the effect of various compositions on TGF-β-induced collagen 1 expression, which is a marker of EMT, on immortalized human proximal tubule epithelial cells (HK-2 cells). HK-2 cells were treated with TGF-β (an inducer of EMT) at a concentration of 10 ng/ml. Expression of the EMT marker collagen 1 mRNA was determined by quantitative real-time PCR.
as §1, with “* and” for “*,”, “**” for “** and ****”, “0.05 and” for “0.05,”, “0.01” for “0.01 and 0.0001”, “concentration of the mixture” for “concentration”

[6] = fatty acid concentration 2.5 × 10^−4M, TGF-β 10 ng/ml

CCCCCCCC(=O)[O-].[Na+] [Sodium Octanoate, reference compound]
Changes in collagen mRNA expression (relative to TGF-β-treated cells) (HK-2 cells [1]; [6]): 42.2% of increase | EGF-induced PC-3 migration (FIG. 7, in words) (PC-3 cells; combined with albumin): migration is increased | EGF-induced PC-3 migration or invasion (FIG. 7, in words) (PC-3 cells): does not inhibit the cell migration | Mesenchymal transition induced by TGF-β (collagen 1a1 mRNA expression, FIG. 5, in words) [2]: contrarily | Mesenchymal transition induced by TGF-β (collagen 1a1 mRNA expression, FIG. 4, in words) [3]: contrarily | Mesenchymal transition induced by TGF-β (collagen 1a1 mRNA expression, FIG. 6, in words) [4]: no significant results | Effect on expression of collagen in TGF-β-induced HK-2 cells (in words) (HK-2 cells [5]): expression of collagen was increased (or stimulated) | Changes in collagen mRNA expression (relative to TGF-β-treated cells) (HK-2 cells [5]): 24.1% of increase

CCCCCCCCCC(=O)[O-].[Na+] [Sodium Decanoate]
Changes in collagen mRNA expression (relative to TGF-β-treated cells) (HK-2 cells [1]; [6]): 66.6% of decrease | EGF-induced PC-3 migration or invasion (FIG. 7, in words) (PC-3 cells): inhibition of the EGF-induced PC-3 migration or invasion | Mesenchymal transition induced by TGF-β (collagen 1a1 mRNA expression, FIG. 5, in words) [2]: reduced significantly the mesenchymal transition | Mesenchymal transition induced by TGF-β (collagen 1a1 mRNA expression, FIG. 4, in words) [3]: reduced significantly the mesenchymal transition | Mesenchymal transition induced by TGF-β (collagen 1a1 mRNA expression, FIG. 6, in words) [4]: reduced significantly the mesenchymal transition | Effect on expression of collagen in TGF-β-induced HK-2 cells (in words) (HK-2 cells [5]): decrease (or inhibit) the expression of collagen | Changes in collagen mRNA expression (relative to TGF-β-treated cells) (HK-2 cells [5]): 103.4% of decrease

CCCCCCCCCCCC(=O)OCC(COC(=O)CCCCCCCCCCC)OC(=O)CCCCCCCCCCC [Trilaurin]
Changes in collagen mRNA expression (relative to TGF-β-treated cells) (HK-2 cells [1]; triglyceride concentration 5%): 84.6% of decrease

CCCCCCCCCCC(=O)O [Undecanoic Acid]
Changes in collagen mRNA expression (relative to TGF-β-treated cells) (HK-2 cells [1]; fatty acid concentration 2.7 × 10^−7M, TGF-β 10 ng/ml): 120.95% of decrease | Effect on expression of collagen in TGF-β-induced HK-2 cells (in words) (HK-2 cells [5]): inhibited the expression of collagen

CCCCCCCCCC(=O)O [Decanoic Acid]
Changes in collagen mRNA expression (relative to TGF-β-treated cells) (HK-2 cells [1]; fatty acid concentration 5.8 × 10^−7M, TGF-β 10 ng/ml): 105.4% of decrease

CCCCCCCCCCCC(=O)[O-].[Na+] [Sodium Laurate]
Changes in collagen mRNA expression (relative to TGF-β-treated cells) (HK-2 cells [1]; fatty acid concentration 1.0 × 10^−4M, TGF-β 10 ng/ml): 113.7% of decrease | Effect on expression of collagen in TGF-β-induced HK-2 cells (in words) (HK-2 cells [5]): inhibited the expression of collagen

CCCCCCCCC(=O)O [Nonanoic Acid]
Changes in collagen mRNA expression (relative to TGF-β-treated cells) (HK-2 cells [1]; fatty acid concentration 6.3 × 10^−7M, TGF-β 10 ng/ml): 51.4% of decrease | Effect on expression of collagen in TGF-β-induced HK-2 cells (in words) (HK-2 cells [5]): inhibited the expression of collagen

CCCCCCCCCCCCCC(=O)OCC(COC(=O)CCCCCCCCCCCCC)OC(=O)CCCCCCCCCCCCC [Trimyristin]
Changes in collagen mRNA expression (relative to TGF-β-treated cells) (HK-2 cells [1]; triglyceride concentration 5%): 52.3% of decrease

CCCCCCCCCC(=O)OCC(COC(=O)CCCCCCCCC)OC(=O)CCCCCCCCC [Tricaprin]
Changes in collagen mRNA expression (relative to TGF-β-treated cells) (HK-2 cells [1]; triglyceride concentration 5%): 120.4% of decrease
